Holding throughout (format): functional
The test system of assay [1] is Vibrio anguillarum. Description: Antimicrobial activity against Vibrio anguillarum serotype O2b 04/09/494-5106 isolate containing parC position 83 Ser-Ile substitution mutation from Atlantic cod after 5 days by microplate broth dilution method. The settings on record: 120 h.
The subject of assay [2] is Vibrio anguillarum. In words: Antimicrobial activity against Vibrio anguillarum serotype O2b 04/09/363-5034 isolate containing gyrA and parC quinolone resistance mutations from Atlantic cod at 30 ug by disc diffusion assay. The settings on record: read-out: IZ.
Assay [3] concerns Vibrio anguillarum. Description: Antimicrobial activity against Vibrio anguillarum serotype O2b 04/09/363-5036 isolate containing gyrA and parC quinolone resistance mutations from Atlantic cod after 5 days by microplate broth dilution method. The settings on record: 120 h.
In assay [4] the test system is Vibrio anguillarum. Description: Antimicrobial activity against Vibrio anguillarum serotype O2b 04/09/367-5043 isolate containing gyrA position 83 Ser-Ile substitution mutation from Atlantic cod after 5 days by microplate broth dilution method. The settings on record: 120 h.
Assay [5] has as its system Vibrio anguillarum. In words: Antimicrobial activity against Vibrio anguillarum serotype O2b 04/09/367-5042 isolate containing gyrA and parC quinolone resistance mutations from Atlantic cod at 30 ug by disc diffusion assay. The settings on record: read-out: IZ.
Assay [6] relates to Vibrio anguillarum. In words: Antimicrobial activity against Vibrio anguillarum serotype O2b 04/09/363-5036 isolate containing gyrA and parC quinolone resistance mutations from Atlantic cod at 30 ug by disc diffusion assay. The settings on record: read-out: IZ.
The test system of assay [7] is Vibrio anguillarum. In words: Antimicrobial activity against Vibrio anguillarum serotype O2b 04/09/422-5063 isolate containing gyrA and parC quinolone resistance mutations from Atlantic cod at 30 ug by disc diffusion assay. The settings on record: read-out: IZ.
Assay [8] concerns Vibrio anguillarum. Description: Antimicrobial activity against Vibrio anguillarum BAF33487 containing parC position 90 Glu-Gly substitution mutation.
The test system of assay [9] is Vibrio anguillarum. Description: Antimicrobial activity against Vibrio anguillarum serotype O2b 04/09/367-5042 isolate containing gyrA and parC quinolone resistance mutations from Atlantic cod after 5 days by microplate broth dilution method. The settings on record: 120 h.
In assay [10] the test system is Vibrio anguillarum. Description: Antimicrobial activity against Vibrio anguillarum serotype O2b 04/09/367-5043 isolate containing gyrA position 83 Ser-Ile substitution mutation from Atlantic cod at 30 ug by disc diffusion assay. The settings on record: read-out: IZ.
The test system of assay [11] is Vibrio anguillarum. Description: Antimicrobial activity against Vibrio anguillarum serotype O2b 04/09/422-5063 isolate containing gyrA and parC quinolone resistance mutations from Atlantic cod after 5 days by microplate broth dilution method. The settings on record: 120 h.
Assay [12] deals with Vibrio anguillarum. Description: Antimicrobial activity against Vibrio anguillarum serotype O2b 04/09/494-5106 isolate containing parC position 83 Ser-Ile substitution mutation from Atlantic cod at 30 ug by disc diffusion assay. The settings on record: read-out: IZ.
The test system of assay [13] is Vibrio anguillarum. Description: Antimicrobial activity against Vibrio anguillarum serotype O2b 04/09/363-5034 isolate containing gyrA and parC quinolone resistance mutations from Atlantic cod after 5 days by microplate broth dilution method. The settings on record: 120 h.

Values after ≈ are worked out from the molar mass of the structure shown. Bounds are passed on as bounds.

As for `CCn1cc(C(=O)O)c(=O)c2cc3c(cc21)OCO3` [OXOLINIC ACID], the MIC against Vibrio anguillarum [1] was 16 µg/mL (≈ 61.2 µM); against Vibrio anguillarum [3] it was no more than 0.0001 µg/mL; in the assay on Vibrio anguillarum [4], 0.06 µg/mL (≈ 0.23 µM); in the assay with Vibrio anguillarum [8], 6.25 µg/mL (≈ 23.9 µM); in the assay with Vibrio anguillarum [9], 0.06 µg/mL (≈ 0.23 µM); in the assay on Vibrio anguillarum [11], 0.06 µg/mL (≈ 0.23 µM). Besides, the zone of inhibition at 30 µg/disc turned out to be 49 mm in the assay on Vibrio anguillarum [2]; 27 mm with Vibrio anguillarum [5]; 47 mm in the assay with Vibrio anguillarum [6]; 30 mm in the assay with Vibrio anguillarum [7]; 28 mm in the assay with Vibrio anguillarum [10]; 0 mm in the assay with Vibrio anguillarum [12].
Take `CCn1cc(C(=O)O)c(=O)c2ccc(C)nc21` [NALIDIXIC ACID]: the MIC was greater than 128 µg/mL against Vibrio anguillarum [1]; no more than 1 µg/mL in the assay with Vibrio anguillarum [3]; 8 µg/mL (≈ 34.4 µM) against Vibrio anguillarum [4]; 16 µg/mL (≈ 68.9 µM) with Vibrio anguillarum [9]; no more than 1 µg/mL in the assay with Vibrio anguillarum [13]; 16 µg/mL (≈ 68.9 µM) in the assay on Vibrio anguillarum [11].
Turning to `CC1CCc2cc(F)cc3c(=O)c(C(=O)O)cn1c23` (stereo not given) [FLUMEQUINE], the zone of inhibition at 30 µg/disc in the assay on Vibrio anguillarum [2] was found to be 54 mm; in the assay on Vibrio anguillarum [5], 36 mm; in the assay with Vibrio anguillarum [6], 52 mm; in the assay on Vibrio anguillarum [7], 37 mm; in the assay on Vibrio anguillarum [10] it was 37 mm; with Vibrio anguillarum [12], 17 mm.
Turning to `CCN1CCN(c2cc3c(cc2F)c(=O)c(C(=O)O)cn3C2CC2)CC1` [ENROFLOXACIN], the MIC in the assay with Vibrio anguillarum [1] was 1 µg/mL (≈ 2.78 µM); in the assay with Vibrio anguillarum [3], no more than 0.03 µg/mL; in the assay with Vibrio anguillarum [4] it was 0.25 µg/mL (≈ 0.696 µM); with Vibrio anguillarum [9], 0.25 µg/mL (≈ 0.696 µM); against Vibrio anguillarum [13], no more than 0.03 µg/mL; in the assay with Vibrio anguillarum [11] it was 0.5 µg/mL (≈ 1.39 µM).

The record behind these values is ChEMBL document CHEMBL1157372, “gyrA and parC Mutations and associated quinolone resistance in Vibrio anguillarum serotype O2b strains isolated from farmed Atlantic cod (Gadus morhua) in Norway” (2007).
